Results published in ChEMBL document CHEMBL1201862, “PubChem BioAssay data set” (2004).
Active and inactive are the calls of the source.

system: not listed separately; assay: HEp-2 cell cytotoxicity, dose response, cytotoxicity control for RSV inhibitor project, HTS (AID 2410); type: functional; conditions: human respiratory syncytial virus

Row | SMILES | CC50
1 | C/C(CCc1oc2ccc(Cl)cc2c1-c1ccc(C)o1)=N\O | 37.9 µM (active)

system: not listed separately; assay: inhibitors of firefly luciferase expression or activity, dose response, H4 neuroglioma cells, luminescence (AID 1990); type: functional, cell-based; conditions: not given

Row | SMILES | EC50
2 | Cc1cc(C)c(S(=O)(=O)N(C)CC(=O)NC2CCCC2)c(C)c1 | > 120 µM (not active)
3 | CC1C(=O)C(C)C(c2ccc(Cl)cc2)NC1c1ccc(Cl)cc1 (stereo not drawn) | 13.8 µM (active)
4 | O=C(CN(Cc1ccc(F)cc1)C(=O)C1CSC(=O)C1)NC1CCCCC1 (stereo not drawn) | > 120 µM (not active)
5 | C1CCCCCC2(CCCCC1)OCC(CN1CCOCC1)O2 (stereo not drawn) | > 120 µM (not active)
6 | CCC1CN(C(=O)N2CCC(C(=O)NCc3ccc(C)o3)CC2)c2ccccc2O1 (stereo not drawn) | > 120 µM (not active)
7 | COc1ccc(C(=O)/N=C2\SC3CS(=O)(=O)CC3N2Cc2ccccc2)cc1OC (stereo not drawn) | 26.2 µM (active)
8 | COc1ccc(N2C(N)=NC(N)=NC2(C)C)cc1 | 10 µM (active)

target: T1, RNA-binding protein pos-1 (Caenorhabditis elegans, UniProt G5EF15); assay: inhibitors of POS-1/mex-3 RNA binding, dose response, biochemical, fluorescence polarization (AID 1964); conditions: not given;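 further: purified POS-1 fused to maltose binding protein made in E. coli; potency of compounds blocking POS-1 binding to fluorescent RNA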
T1 sequence (G5EF15 whole entry): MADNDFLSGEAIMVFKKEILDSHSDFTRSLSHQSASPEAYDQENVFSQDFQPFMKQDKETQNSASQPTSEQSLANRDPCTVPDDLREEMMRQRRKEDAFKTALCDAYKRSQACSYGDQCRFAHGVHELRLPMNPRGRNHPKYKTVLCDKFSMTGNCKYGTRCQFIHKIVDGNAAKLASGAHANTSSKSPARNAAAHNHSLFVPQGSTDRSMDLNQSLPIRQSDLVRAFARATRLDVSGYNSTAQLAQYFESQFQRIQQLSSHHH

Row | SMILES | EC50
9 | COc1ccc(C=C2C(=O)OC(C)(C)OC2=O)cc1OC | > 300 µM (not active)
10 | Cc1c(N/C=C2\C(=O)NC(=O)N(Cc3ccco3)C2=O)c(=O)n(-c2ccccc2)n1C | > 300 µM (not active)
11 | CCCCC1=CC2=C(c3ccco3)C(=O)C(C)(OC(=O)c3ccc(OC)cc3)C(=O)C2=CN1CCN1CCOCC1 (stereo not drawn) | 95.7 µM (active)
12 | COc1ccc2c(c1)C1C=CCC1C(c1cc3c(cc1Br)OCO3)N2 (stereo not drawn) | > 300 µM (not active)
13 | Cn1ncc2c(NNC(=O)Cc3ccccc3)ncnc21 | > 300 µM (not active)
14 | CCCN1CC=C2C(C#N)=C(N)C(C#N)(C#N)C(c3cc(OC)ccc3OC)C2C1 (stereo not drawn) | 27.9 µM (active)
15 | C=CCn1cc(C=C2C(=O)NC(=O)NC2=O)c2ccccc21 | > 300 µM (not active)
16 | O/C(=C(\C([S-])=NCc1ccco1)[n+]1ccccc1)c1ccccc1Br | > 300 µM (not active)
17 | CSC(=Nc1cccc(Cl)c1C)NS(=O)(=O)c1cccs1 | > 300 µM (not active)
18 | COc1ccc(OC)c(S(=O)(=O)NC2CCN(Cc3ccccc3)CC2)c1 | > 300 µM (not active)
19 | CC1C2(C)OC(=N)C(C#N)(C(C)O2)C1(C#N)C#N (stereo not drawn) | > 300 µM (not active)
20 | COc1cccc(NC(=O)c2ccccc2Br)c1 | > 300 µM (not active)
21 | Cc1cc(/C=C2\C(=O)NC(=O)N(c3ccc(F)cc3)C2=O)c(C)n1-c1ccc(C(=O)O)cc1 | > 300 µM (not active)
22 | C/C(CCc1oc2ccc(Cl)cc2c1-c1ccc(C)o1)=N\O | > 300 µM (not active)

system: not listed separately; assay: Luminescence Cell-Based Dose Response HTS to Identify Inhibitors of 5'UTR Stem-Loop Driven Prion Protein mRNA Translation in H4 Neuroglioblastoma Cells. [Related pubchem assays: 1827 (Project Summary), 1813 (Primary HTS)]; type: functional; conditions: not given

Row | SMILES | EC50
23 | Cc1cc(C)c(S(=O)(=O)N(C)CC(=O)NC2CCCC2)c(C)c1 | > 120 µM (not active)
24 | CC1C(=O)C(C)C(c2ccc(Cl)cc2)NC1c1ccc(Cl)cc1 (stereo not drawn) | 15.7 µM (active)
25 | O=C(CN(Cc1ccc(F)cc1)C(=O)C1CSC(=O)C1)NC1CCCCC1 (stereo not drawn) | > 120 µM (not active)
26 | C1CCCCCC2(CCCCC1)OCC(CN1CCOCC1)O2 (stereo not drawn) | > 120 µM (not active)
27 | CCC1CN(C(=O)N2CCC(C(=O)NCc3ccc(C)o3)CC2)c2ccccc2O1 (stereo not drawn) | > 120 µM (not active)
28 | COc1ccc(C(=O)/N=C2\SC3CS(=O)(=O)CC3N2Cc2ccccc2)cc1OC (stereo not drawn) | 25.4 µM (active)
29 | COc1ccc(N2C(N)=NC(N)=NC2(C)C)cc1 | > 120 µM (not active)

target: T2, Zinc finger protein mex-5 (Caenorhabditis elegans, UniProt Q9XUB2); assay: MEX-5/TCR-2 RNA interaction inhibitors, dose response, biochemical, C. elegans, fluorescence polarization (AID 1960); conditions: not given
T2 sequence (Q9XUB2 whole entry): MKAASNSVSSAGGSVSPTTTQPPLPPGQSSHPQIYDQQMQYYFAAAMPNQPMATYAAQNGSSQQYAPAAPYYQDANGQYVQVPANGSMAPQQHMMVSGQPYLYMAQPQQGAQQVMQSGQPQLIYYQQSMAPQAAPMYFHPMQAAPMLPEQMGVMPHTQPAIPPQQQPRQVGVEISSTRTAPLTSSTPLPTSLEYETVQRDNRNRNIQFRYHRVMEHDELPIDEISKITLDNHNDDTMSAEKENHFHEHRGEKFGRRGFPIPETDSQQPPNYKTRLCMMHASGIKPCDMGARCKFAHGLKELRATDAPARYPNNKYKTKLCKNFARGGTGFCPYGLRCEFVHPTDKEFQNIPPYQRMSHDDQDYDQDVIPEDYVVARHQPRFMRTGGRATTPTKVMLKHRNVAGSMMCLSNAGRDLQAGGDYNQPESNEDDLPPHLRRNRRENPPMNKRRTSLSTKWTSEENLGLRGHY

Row | SMILES | EC50
30 | COc1ccc(C=C2C(=O)OC(C)(C)OC2=O)cc1OC | > 300 µM (not active)
31 | Cc1c(N/C=C2\C(=O)NC(=O)N(Cc3ccco3)C2=O)c(=O)n(-c2ccccc2)n1C | > 300 µM (not active)
32 | CCCCC1=CC2=C(c3ccco3)C(=O)C(C)(OC(=O)c3ccc(OC)cc3)C(=O)C2=CN1CCN1CCOCC1 (stereo not drawn) | 42.2 µM (active)
33 | COc1ccc2c(c1)C1C=CCC1C(c1cc3c(cc1Br)OCO3)N2 (stereo not drawn) | 47.9 µM (active)
34 | Cn1ncc2c(NNC(=O)Cc3ccccc3)ncnc21 | 10.5 µM (active)
35 | CCCN1CC=C2C(C#N)=C(N)C(C#N)(C#N)C(c3cc(OC)ccc3OC)C2C1 (stereo not drawn) | 25.5 µM (active)
36 | C=CCn1cc(C=C2C(=O)NC(=O)NC2=O)c2ccccc21 | 112 µM (inconclusive)
37 | O/C(=C(\C([S-])=NCc1ccco1)[n+]1ccccc1)c1ccccc1Br | 58.4 µM (active)
38 | CSC(=Nc1cccc(Cl)c1C)NS(=O)(=O)c1cccs1 | > 300 µM (not active)
39 | COc1ccc(OC)c(S(=O)(=O)NC2CCN(Cc3ccccc3)CC2)c1 | > 300 µM (not active)
40 | CC1C2(C)OC(=N)C(C#N)(C(C)O2)C1(C#N)C#N (stereo not drawn) | 16 µM (active)
41 | COc1cccc(NC(=O)c2ccccc2Br)c1 | > 300 µM (not active)
42 | Cc1cc(/C=C2\C(=O)NC(=O)N(c3ccc(F)cc3)C2=O)c(C)n1-c1ccc(C(=O)O)cc1 | > 300 µM (not active)
43 | C/C(CCc1oc2ccc(Cl)cc2c1-c1ccc(C)o1)=N\O | > 300 µM (not active)

system: not listed separately; assay: inhibitors of SNCA 5'UTR-driven reporter translation, confirmation, H4 neuroglioma cells, luminescence (AID 1988); type: functional, cell-based; conditions: not given

Row | SMILES | EC50
44 | Cc1cc(C)c(S(=O)(=O)N(C)CC(=O)NC2CCCC2)c(C)c1 | > 120 µM (not active)
45 | CC1C(=O)C(C)C(c2ccc(Cl)cc2)NC1c1ccc(Cl)cc1 (stereo not drawn) | 17.1 µM (active)
46 | O=C(CN(Cc1ccc(F)cc1)C(=O)C1CSC(=O)C1)NC1CCCCC1 (stereo not drawn) | > 120 µM (not active)
47 | C1CCCCCC2(CCCCC1)OCC(CN1CCOCC1)O2 (stereo not drawn) | > 120 µM (not active)
48 | CCC1CN(C(=O)N2CCC(C(=O)NCc3ccc(C)o3)CC2)c2ccccc2O1 (stereo not drawn) | > 120 µM (not active)
49 | COc1ccc(C(=O)/N=C2\SC3CS(=O)(=O)CC3N2Cc2ccccc2)cc1OC (stereo not drawn) | > 120 µM (not active)
50 | COc1ccc(N2C(N)=NC(N)=NC2(C)C)cc1 | 7.02 µM (active)

target: Cytochrome P450 2C19 (Homo sapiens, UniProt P33261); assay: Cytochrome panel assay with activity outcomes. Panel member name: p450-cyp2c19 Compounds with AC50 equal or less than 10 uM are considered active; type: functional; conditions: read-out: AC50
Sequence (P33261 whole entry): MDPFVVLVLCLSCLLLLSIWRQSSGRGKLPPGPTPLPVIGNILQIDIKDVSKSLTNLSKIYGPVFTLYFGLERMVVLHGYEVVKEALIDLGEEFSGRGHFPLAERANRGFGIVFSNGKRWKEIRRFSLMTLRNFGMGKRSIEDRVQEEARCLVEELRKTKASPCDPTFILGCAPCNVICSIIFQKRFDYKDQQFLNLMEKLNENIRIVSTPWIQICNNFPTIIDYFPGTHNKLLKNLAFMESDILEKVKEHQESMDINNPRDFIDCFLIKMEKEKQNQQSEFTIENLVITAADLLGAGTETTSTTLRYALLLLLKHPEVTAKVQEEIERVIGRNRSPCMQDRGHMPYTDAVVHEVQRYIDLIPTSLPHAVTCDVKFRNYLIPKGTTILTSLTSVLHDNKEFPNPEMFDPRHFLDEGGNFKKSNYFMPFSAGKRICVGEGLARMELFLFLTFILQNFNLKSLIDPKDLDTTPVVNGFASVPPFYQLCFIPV

Row | SMILES | AC50
51 | CCCN1CC=C2C(C#N)=C(N)C(C#N)(C#N)C(c3cc(OC)ccc3OC)C2C1 (stereo not drawn) | 14.1 µM (inconclusive)

target: Cytochrome P450 2D6 (Homo sapiens, UniProt P10635); conditions: not given;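 further: CYP2D6 member of a cytochrome P450 panel assay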
Sequence (P10635 whole entry): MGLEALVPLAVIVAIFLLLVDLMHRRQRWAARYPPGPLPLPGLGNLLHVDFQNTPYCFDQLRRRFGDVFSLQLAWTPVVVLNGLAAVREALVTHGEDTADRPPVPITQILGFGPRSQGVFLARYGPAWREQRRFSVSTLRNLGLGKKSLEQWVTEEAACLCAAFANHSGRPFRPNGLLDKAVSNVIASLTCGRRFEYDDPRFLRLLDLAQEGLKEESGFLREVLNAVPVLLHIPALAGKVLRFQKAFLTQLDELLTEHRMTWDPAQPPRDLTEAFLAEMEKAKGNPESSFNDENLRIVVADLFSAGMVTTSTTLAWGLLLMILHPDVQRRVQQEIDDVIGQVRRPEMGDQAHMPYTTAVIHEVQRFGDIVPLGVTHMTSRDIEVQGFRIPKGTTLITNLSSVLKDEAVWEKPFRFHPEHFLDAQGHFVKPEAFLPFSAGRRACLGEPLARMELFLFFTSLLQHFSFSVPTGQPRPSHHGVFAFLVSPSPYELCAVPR

Row | SMILES | AC50
52 | CCCN1CC=C2C(C#N)=C(N)C(C#N)(C#N)C(c3cc(OC)ccc3OC)C2C1 (stereo not drawn) | 15.8 µM (inconclusive)

target: Cytochrome P450 2C9 (Homo sapiens, UniProt P11712); conditions: not given
Sequence (P11712 whole entry): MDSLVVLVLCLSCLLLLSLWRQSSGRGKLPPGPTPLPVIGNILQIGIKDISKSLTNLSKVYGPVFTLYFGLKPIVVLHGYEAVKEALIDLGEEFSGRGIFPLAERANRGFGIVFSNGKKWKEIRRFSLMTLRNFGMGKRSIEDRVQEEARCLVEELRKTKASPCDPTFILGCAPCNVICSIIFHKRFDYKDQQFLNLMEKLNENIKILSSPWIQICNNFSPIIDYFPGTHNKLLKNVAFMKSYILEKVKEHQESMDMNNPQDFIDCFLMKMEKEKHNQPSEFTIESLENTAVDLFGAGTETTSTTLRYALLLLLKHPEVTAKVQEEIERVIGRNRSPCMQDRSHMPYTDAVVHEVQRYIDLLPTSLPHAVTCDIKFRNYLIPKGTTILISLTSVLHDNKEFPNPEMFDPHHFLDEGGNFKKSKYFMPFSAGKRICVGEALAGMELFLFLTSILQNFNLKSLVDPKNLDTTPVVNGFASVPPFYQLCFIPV

Row | SMILES | AC50
53 | CCCN1CC=C2C(C#N)=C(N)C(C#N)(C#N)C(c3cc(OC)ccc3OC)C2C1 (stereo not drawn) | 7.94 µM (inconclusive)
